We go through seven compounds from paper PMC8047731 (ACS Omega, 2021).

Test [1] concerns short duplex DNA substrate (EtBr-DS). Nature of the test: Ethidium bromide displacement assay. It is filed as binding. The note with it: compound at exonuclease IC50 of SNM1A, 10 min.
For another test, the system named is nuclease. The following applies: cited from earlier work.
Test [2] deals with T1, SNM1A exonuclease activity (Homo sapiens, UniProt Q6PJP8).
T1 sequence (Q6PJP8 698-1040): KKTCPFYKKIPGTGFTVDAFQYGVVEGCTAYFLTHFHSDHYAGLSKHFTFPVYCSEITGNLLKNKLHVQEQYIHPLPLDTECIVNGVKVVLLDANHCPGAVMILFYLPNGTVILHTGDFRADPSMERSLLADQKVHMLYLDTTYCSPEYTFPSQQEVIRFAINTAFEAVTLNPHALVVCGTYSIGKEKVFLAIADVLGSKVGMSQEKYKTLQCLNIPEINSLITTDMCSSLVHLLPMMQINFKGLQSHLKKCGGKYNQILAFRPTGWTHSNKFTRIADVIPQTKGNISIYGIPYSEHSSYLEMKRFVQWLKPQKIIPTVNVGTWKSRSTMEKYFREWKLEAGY
Nature of the test: Gel-based IC50 determination, SNM1A exonuclease activity. The following applies: 0.2 nM SNM1A, 110 nM 5P-1F, 60 min, 37 °C, triplicate.

The next test deals with HeLa cells. Briefly: Cisplatin potentiation assay. It is filed as cell-based. The following applies: 25 μM compound + […] μM cisplatin (LD10), 72 h, alamarBlue. Background: Resazurin is reduced to fluorescent resorufin, in cell work by metabolically active cells.
A further test deals with T2, SNM1A (Homo sapiens, UniProt Q6PJP8).
T2 sequence (Q6PJP8 698-1040): T1 sequence (Q6PJP8 698-1040)
Nature of the test: Gel-based secondary screen validation. The following applies: 25 and 6.25 μM compound. It is filed as biochemical.

For the compound `O=C(O)C1=CC(=C(c2ccc(O)c(C(=O)O)c2)c2ccc(O)c(C(=O)O)c2)C=CC1=O` [Compound 20, AURINTRICARBOXYLIC ACID], the “Displacement of ethidium bromide from DNA” value (“Displacement” for short) in test [1] is “apparent nonspecific interactions with DNA”. The Nuclease inhibition result in the test with nuclease is on record as “nonspecific nuclease inhibitor”. Further, in test [2], the “Exonuclease IC50” value is “nanomolar range”. For `O=c1cc(-c2ccc(O)c(-c3c(O)cc(O)c4c(=O)cc(-c5ccc(O)cc5)oc34)c2)oc2cc(O)cc(O)c12` [Compound 13, AMENTOFLAVONE], in the test on HeLa cells, the “Cell survival with sublethal cisplatin (potentiation)” value was “reduced cell survival”. Also, the “Displacement” value in test [1] was “do not appear to significantly displace ethidium bromide”.

Take `COC(=O)c1cc(O)c(=O)c2c(O)c(O)ccc2c1` [Compound 61, METHYL 7-DESHYDROXYPYROGALLIN-4-CARBOXYLATE]: the “Displacement” value in test [1] is recorded as “do not appear to significantly displace ethidium bromide”.

For `Nc1c(S(=O)(=O)O)cc(Nc2ccc(Nc3nc(Cl)nc(Nc4cccc(S(=O)(=O)O)c4)n3)c(S(=O)(=O)O)c2)c2c1C(=O)c1ccccc1C2=O` [Compound 30, REACTIVE BLUE 2], the “Cell survival with sublethal cisplatin (potentiation)” value in the test with HeLa cells is reported as “reduced cell survival”. Besides, in test [1], the “Displacement” value was “apparent nonspecific interactions with DNA”. In the case of `O=C1OC2(c3ccc(O)cc3Oc3cc(O)ccc32)c2ccccc21` [Compound 54, FLUORESCEIN], the “Assay interference in the gel-based screen (reason for exclusion)” value on SNM1A is on record as “internal fluorescence”. Still for that read-out and setting: the same measure for `C[C@@H]1CC[C@@]23CCC4(C)[C@@](C=CC5[C@@]6(C)CCC(=O)C(C)(C)C6CC[C@]54C)(OC2=O)C3[C@H]1C` (some centres unmarked) [Compound 44, 3-OXOURSAN (28-13)OLIDE]: “internal fluorescence”. As for `O=C(O[C@@H]1Cc2c(O)cc(O)cc2O[C@@H]1c1cc(O)c(=O)c2c(O)c(O)cc([C@H]3Oc4cc(O)cc(O)c4C[C@H]3OC(=O)c3cc(O)c(O)c(O)c3)c2c1)c1cc(O)c(O)c(O)c1` [Compound 40, […]], the “Displacement” value in test [1] is on record as “apparent nonspecific interactions with DNA”.
